The values that follow come from PubChem BioAssay (NCI).

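48-hour exposure; five concentrations; linearly interpolated endpoints. GI50 is the concentration that inhibits growth by half. TGI marks complete inhibition of growth.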

Among the test systems are TK-10 renal; UACC-62 melanoma; HT29 colon; SK-MEL-28 melanoma; UO-31 renal; MOLT-4 leukemia; COLO 205 colon; A549 NSCLC; HCT-15 colon; EKVX NSCLC.
Common to all, as to experiment: growth of human tumour cells (NCI), 48 h

As to `CC12CCC(=O)C[C@H]1CCC(OC=O)C2Br` (stereo not given in full), the TGI in the assay with TK-10 renal, in the assay with UACC-62 melanoma, with HT29 colon, with SK-MEL-28 melanoma, in the assay with UO-31 renal and with MOLT-4 leukemia was over 100 µM throughout. The TGI with COLO 205 colon, in the assay on A549 NSCLC and in the assay with HCT-15 colon was over 100 µM in each case.
Take `COc1c(O)c2c(=O)cc3c4c5c(cc(=O)c6c(O)c(OC)c(CC(C)O)c(c(c1CC(C)O)c24)c65)OCO3` (stereo not given): the TGI in the assay on TK-10 renal is 8.12 µM; in the assay with UACC-62 melanoma it was 3.79 µM; in the assay with HT29 colon it was 8.58 µM; in the assay on SK-MEL-28 melanoma it was 4.23 µM; in the assay on UO-31 renal it was 5.45 µM; in the assay on MOLT-4 leukemia, 4.44 µM. Also, the TGI was determined as 0.765 µM with COLO 205 colon, 8.39 µM in the assay with A549 NSCLC and 4.13 µM with HCT-15 colon.
On to `COc1cc(Cl)cc(-c2nn(-c3cccc(NC(=O)c4ccc(N5CCOCC5)c(C(F)(F)F)c4)c3)cc2-c2ccncc2)c1`, for which the GI50 with UACC-62 melanoma is 9.1 µM; with HT29 colon it was 4.09 µM; with SK-MEL-28 melanoma it was 14.8 µM; in the assay with UO-31 renal, 4.5 µM; in the assay on MOLT-4 leukemia it was 5.49 µM; in the assay with COLO 205 colon, 22.2 µM. In addition, the GI50 in the assay on A549 NSCLC was 9.15 µM; with HCT-15 colon it was 3.25 µM. For the same molecule, the TGI in the assay with UACC-62 melanoma is over 100 µM; with HT29 colon it was 38 µM; in the assay on SK-MEL-28 melanoma it was over 100 µM; in the assay on UO-31 renal, over 100 µM; in the assay on MOLT-4 leukemia, over 100 µM; in the assay on COLO 205 colon it was over 100 µM. Further, the TGI in the assay on A549 NSCLC and in the assay on HCT-15 colon was over 100 µM in each case.
For `COc1cnc2c(c1)C(=O)c1c-2n(CCCNC2=NCCS2)c(=O)c2cc([N+](=O)[O-])ccc12`, the GI50 with UO-31 renal is under 0.01 µM; with EKVX NSCLC, 1.01 µM; in the assay on HCT-15 colon, 1.17 µM. Also, the values for the TGI in the assay on UO-31 renal, with EKVX NSCLC and with HCT-15 colon were 1.19 µM, 2.82 µM and 2.66 µM, respectively.
In the case of `COc1ccc(-c2nnc3n(C)c(=O)c4ccccc4n23)cc1N`, the GI50 in the assay on HT29 colon is 0.0432 µM; in the assay on UO-31 renal, 4.96 µM; in the assay with MOLT-4 leukemia it was 3.92 µM; in the assay on EKVX NSCLC, 5.87 µM; with COLO 205 colon, 0.0469 µM; in the assay on A549 NSCLC it was 1.47 µM. In the assay on HCT-15 colon, the GI50 was 0.0498 µM. Further, the TGI was over 100 µM in the assay with HT29 colon; over 100 µM in the assay with UO-31 renal; over 100 µM in the assay with MOLT-4 leukemia; over 100 µM in the assay with EKVX NSCLC; 4.44 µM in the assay on COLO 205 colon; over 100 µM with A549 NSCLC. In the assay with HCT-15 colon, this molecule had a TGI of over 100 µM.
`CCN1CCN(c2cc(C)c3cc(NC(=O)c4ccc(OC)c(OC)c4)ccc3n2)CC1`: the GI50 is over 59 µM with TK-10 renal; over 39.4 µM in the assay with UACC-62 melanoma; 1.31 µM in the assay with HT29 colon; 19.9 µM with SK-MEL-28 melanoma; over 37.4 µM in the assay with UO-31 renal; 6.21 µM in the assay on MOLT-4 leukemia. Further, the GI50 with COLO 205 colon is 3.23 µM; with A549 NSCLC, 11.1 µM; in the assay on HCT-15 colon, 3.02 µM. In addition, the TGI with TK-10 renal was 98.5 µM; in the assay with UACC-62 melanoma, over 64.8 µM; with HT29 colon it was over 100 µM; with SK-MEL-28 melanoma it was over 59.7 µM; in the assay with UO-31 renal, over 73.2 µM; in the assay on MOLT-4 leukemia, 88.9 µM. In addition, the values for the TGI in the assay on COLO 205 colon, with A549 NSCLC and in the assay with HCT-15 colon were over 37.6 µM, over 100 µM and over 100 µM, respectively.
`C=CCCCCC1CCC2CCC(CCCCC=C)N12` (stereo not given): the TGI in the assay with TK-10 renal amounted to 34.8 µM; in the assay on UACC-62 melanoma, 30.6 µM; in the assay with HT29 colon, 25.5 µM; with SK-MEL-28 melanoma it was 32.2 µM; in the assay with UO-31 renal, 27.4 µM; with MOLT-4 leukemia, 36.3 µM. For the same molecule, the TGI in the assay on COLO 205 colon is 32.5 µM; in the assay with A549 NSCLC, 30 µM; in the assay on HCT-15 colon, 19.4 µM.
Consider `NC1CCN(Cc2ccccc2)CC1`, for which the GI50 with TK-10 renal, in the assay with UACC-62 melanoma, in the assay with HT29 colon, in the assay on UO-31 renal, with MOLT-4 leukemia and in the assay with COLO 205 colon was over 100 µM each time. The GI50 in the assay on A549 NSCLC and in the assay on HCT-15 colon was over 100 µM in each case. The TGI in the assay on TK-10 renal, with UACC-62 melanoma, in the assay with HT29 colon, in the assay with UO-31 renal, in the assay with MOLT-4 leukemia and in the assay on COLO 205 colon was over 100 µM throughout. Besides, the TGI in the assay on A549 NSCLC and with HCT-15 colon was over 100 µM throughout.
For `N=c1c2c(-c3ccccc3)c(-c3ccccc3)n(Cc3ccccc3)c2ncn1C1CCC(O)CC1` (stereo not given), the GI50 in the assay on TK-10 renal was 0.814 µM; with UACC-62 melanoma it was 0.534 µM; in the assay with HT29 colon, 0.0772 µM; in the assay with SK-MEL-28 melanoma it was 0.624 µM; in the assay on UO-31 renal, 0.258 µM; in the assay on MOLT-4 leukemia, 0.075 µM. In addition, the GI50 with COLO 205 colon was 0.417 µM; with A549 NSCLC, 0.103 µM; with HCT-15 colon it was 0.27 µM. Moreover, the TGI came to 8.96 µM with TK-10 renal; 7.06 µM with UACC-62 melanoma; 2.49 µM in the assay with HT29 colon; 2.22 µM with SK-MEL-28 melanoma; 1.65 µM with UO-31 renal; 4.83 µM with MOLT-4 leukemia. Also, the TGI in the assay with COLO 205 colon worked out at 2.23 µM; in the assay with A549 NSCLC, 12.9 µM; in the assay with HCT-15 colon, 14.7 µM.
